Patent US9770026B2, “Substituted pyrimidine compound and uses thereof” (Shenyang Sinochem Agrochemicals R&D Co., Ltd., priority 2012, dated 2017)

Columns and labels:
corn rust = assay: protectant activity in vivo against corn rust
[1] = system: Green peach aphids (Myzus Persicae Sulzer); assay: bioactivity test against green peach aphid, airbrush foliar spray; format: in vivo; settings: for control (test results against green peach aphid): death rate after 48 hrs
How it was run: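 Aphids (15-30 per cabbage leaf disc) on moist filter paper were airbrush-sprayed at 10 psi, 0.5 mL, with compound from acetone:methanol (1:1) diluted in water with 0.1% tween 80. Held at 25±1 C, 60±5% RH; survivors counted after 48 hrs to give death rates.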

Diamond back moth = assay: insecticidal activity against diamond back moth, airbrush spray; format: in vivo; settings: for control (test results against diamond back moth): 600 ppm, mortality after 72 hrs
Experimental: (§1) Compounds were dissolved in mixed solvent (acetone:methanol=1:1), and diluted to required concentration with water containing 0.1% of tween 80.
(§2) Diamond back moth, armyworm, peach aphid and carmine spider mite were used as targets and the method of spraying by airbrush was used for determination of insecticidal biassays.
(§3) The method of spraying by airbrush: The cabbage leaves were made into plates of 2 cm diameter by use of punch. A test solution (0.5 ml) was sprayed by airbrush at the pressure of 0.7 kg/cm^2 to both sides of every plate. 10 Second instar larvae were put into the petri-dishes after the leaf disc air-dried and 3 replicates were set for each treatment. Then the insects were maintained in observation room (25° C., 60˜70% R.H.). Scores were conducted and mortalities were calculated after 72 hrs.

wheat powdery mildew = assay: protectant activity in vivo against wheat powdery mildew
carmine spider mite = assay: bioactivity test against carmine spider mite, airbrush spray; format: in vivo; settings: for control against carmine spider mite: mortality after 72 hrs
Experimental: as §1, §2
The method: Broadbean shoots with two true leaves in pot were taken, the healthy adults of carmine spider mite were inoculated to the leaves. The adults were counted and then sprayed with airbrush at the pressure of 0.7 kg/cm^2 and at dose of 0.5 ml. 3 replicates were set for each treatment. And then they were maintained in standard observation room. Scores were conducted and mortalities were calculated after 72 hrs.

cucumber downy mildew = assay: protectant activity in vivo against cucumber downy mildew
armyworm = assay: bioactivity test against armyworm, airbrush spray; format: in vivo; settings: 600 ppm, mortality after 72 h
Experimental: as §1, §2
as §3, with “corn” for “cabbage”, “(25 °C,” for “(25° C.,”, “h.” for “hrs.”

CCc1ncnc(NCCc2ccc(Oc3ccccc3Cl)nc2)c1Cl [III-185]
protectant activity against corn rust in vivo (corn rust; 400 ppm): 100% | control (test results against green peach aphid) ([1]; 100 ppm): 100% | control (test results against green peach aphid) ([1]; 600 ppm): 100% | control (test results against diamond back moth) (Diamond back moth): 100% | protectant activity against wheat powdery mildew in vivo (wheat powdery mildew; 400 ppm): 100% | control against carmine spider mite (carmine spider mite; 600 ppm): 100%

COc1cc(CCNc2ncnc(C)c2Cl)ccc1Oc1ccc(Cl)cc1 [II-1687]
protectant activity against cucumber downy mildew in vivo (cucumber downy mildew; 50 ppm): 100% | protectant activity against cucumber downy mildew in vivo (cucumber downy mildew; 100 ppm): 100% | protectant activity against cucumber downy mildew in vivo (cucumber downy mildew; 400 ppm): 100% | protectant activity against corn rust in vivo (corn rust; 100 ppm): 100% | protectant activity against corn rust in vivo (corn rust; 400 ppm): 100% | Insecticidal activity against peach aphid (%) ([1]; 10 mg/L, contrastive test): 100% | Insecticidal activity against peach aphid (%) ([1]; 100 mg/L, contrastive test): 100% | Insecticidal activity against peach aphid (%) ([1]; 600 mg/L, contrastive test): 100% | control (test results against green peach aphid) ([1]; 10 ppm): 100% | control (test results against green peach aphid) ([1]; 100 ppm): 100% | control (test results against green peach aphid) ([1]; 600 ppm): 100% | control (test results against diamond back moth) (Diamond back moth): 100% | protectant activity against wheat powdery mildew in vivo (wheat powdery mildew; 25 ppm): 100% | protectant activity against wheat powdery mildew in vivo (wheat powdery mildew; 100 ppm): 100% | protectant activity against wheat powdery mildew in vivo (wheat powdery mildew; 400 ppm): 100% | control against carmine spider mite (carmine spider mite; 600 ppm): 100%

Cc1ncnc(NCCc2ccc(Oc3ccc(Cl)nn3)cc2)c1Br [Compound I-4121]
protectant activity against corn rust in vivo (corn rust; 400 ppm): 100% | control (test results against green peach aphid) ([1]; 10 ppm): 100% | control (test results against green peach aphid) ([1]; 100 ppm): 100% | control (test results against green peach aphid) ([1]; 600 ppm): 100% | control (test results against diamond back moth) (Diamond back moth): 100% | protectant activity against wheat powdery mildew in vivo (wheat powdery mildew; 400 ppm): 100% | control (test results against armyworm) (armyworm): 100%

Cc1nc(Cl)c(Cl)c(NCCc2ccc(Oc3ccc(Cl)cc3)nc2)n1 [III-2527]
control effect against cucumber downy mildew (%) (cucumber downy mildew; 6.25 mg/L, protectant activity): 75% | control effect against cucumber downy mildew (%) (cucumber downy mildew; 12.5 mg/L, protectant activity): 100% | control effect against cucumber downy mildew (%) (cucumber downy mildew; 25 mg/L, protectant activity): 100% | control effect against cucumber downy mildew (%) (cucumber downy mildew; 50 mg/L, protectant activity): 100% | control effect against cucumber downy mildew (%) (cucumber downy mildew; 100 mg/L, protectant activity): 100% | control effect against cucumber downy mildew (%) (cucumber downy mildew; 400 mg/L, protectant activity): 100% | protectant activity against cucumber downy mildew in vivo (cucumber downy mildew; 12.5 ppm): 100% | protectant activity against cucumber downy mildew in vivo (cucumber downy mildew; 25 ppm): 100% | protectant activity against cucumber downy mildew in vivo (cucumber downy mildew; 50 ppm): 100% | protectant activity against cucumber downy mildew in vivo (cucumber downy mildew; 100 ppm): 100% | protectant activity against cucumber downy mildew in vivo (cucumber downy mildew; 400 ppm): 100% | control (test results against green peach aphid) ([1]; 600 ppm): 100% | control (test results against diamond back moth) (Diamond back moth): 100% | control (test results against armyworm) (armyworm): 100%

FC(F)(F)c1ccc(Oc2ccc(CCNc3cc(Cl)ncn3)cc2)nc1 [CK69, reference compound]
pest or weed control at 25 µg/mL (cucumber downy mildew; Cucumis sativus, 168 h, read-out: control effect against cucumber downy mildew (%), 25 mg/L, protectant activity): 50% | pest or weed control at 50 µg/mL (cucumber downy mildew; Cucumis sativus, 168 h, read-out: control effect against cucumber downy mildew (%), 50 mg/L, protectant activity): 98% | pest or weed control at 100 µg/mL (cucumber downy mildew; Cucumis sativus, 168 h, read-out: control effect against cucumber downy mildew (%), 100 mg/L, protectant activity): 100% | pest or weed control at 400 µg/mL (cucumber downy mildew; Cucumis sativus, 168 h, read-out: control effect against cucumber downy mildew (%), 400 mg/L, protectant activity): 100% | pest or weed control at 6.25 µg/mL (corn rust; Zea mays, 168 h, read-out: control effect against corn rust (%), 6.25 mg/L, protectant activity): 0% | pest or weed control at 25 µg/mL (corn rust; Zea mays, 168 h, read-out: control effect against corn rust (%), 25 mg/L, protectant activity): 50% | pest or weed control at 100 µg/mL (corn rust; Zea mays, 168 h, read-out: control effect against corn rust (%), 100 mg/L, protectant activity): 90% | pest or weed control at 400 µg/mL (corn rust; Zea mays, 168 h, read-out: control effect against corn rust (%), 400 mg/L, protectant activity): 100% | pest or weed control at 10 µg/mL ([1]; Myzus persicae, foliar, 48 h, 10 mg/L, contrastive test, read-out: Insecticidal activity against peach aphid (%)): 70% | pest or weed control at 100 µg/mL ([1]; Myzus persicae, foliar, 48 h, 100 mg/L, contrastive test, read-out: Insecticidal activity against peach aphid (%)): 100% | pest or weed control at 600 µg/mL ([1]; Myzus persicae, foliar, 48 h, 600 mg/L, contrastive test, read-out: Insecticidal activity against peach aphid (%)): 100% | pest or weed control at 10 µg/mL (Diamond back moth; 72 h, 10 mg/L): 0% | pest or weed control at 100 µg/mL (Diamond back moth; 72 h, 100 mg/L): 5% | pest or weed control at 600 µg/mL (Diamond back moth; 72 h, 600 mg/L): 100% | pest or weed control at 6.25 µg/mL (wheat powdery mildew; Triticum aestivum, 168 h, read-out: control effect against wheat powdery mildew (%), 6.25 mg/L, protectant activity): 0% | pest or weed control at 25 µg/mL (wheat powdery mildew; Triticum aestivum, 168 h, read-out: control effect against wheat powdery mildew (%), 25 mg/L, protectant activity): 0% | pest or weed control at 100 µg/mL (wheat powdery mildew; Triticum aestivum, 168 h, read-out: control effect against wheat powdery mildew (%), 100 mg/L, protectant activity): 0% | pest or weed control at 400 µg/mL (wheat powdery mildew; Triticum aestivum, 168 h, read-out: control effect against wheat powdery mildew (%), 400 mg/L, protectant activity): 100% | pest or weed control at 10 µg/mL (carmine spider mite; Tetranychus cinnabarinus, 72 h, 10 mg/L, contrastive test, read-out: Insecticidal activity against carmine spider mite (% )): 4% | pest or weed control at 100 µg/mL (carmine spider mite; Tetranychus cinnabarinus, 72 h, 100 mg/L, contrastive test, read-out: Insecticidal activity against carmine spider mite (% )): 100% | pest or weed control at 600 µg/mL (carmine spider mite; Tetranychus cinnabarinus, 72 h, 600 mg/L, contrastive test, read-out: Insecticidal activity against carmine spider mite (% )): 100%

Cc1ncnc(NCCc2ccc(Oc3ccc(C(F)(F)F)cc3Cl)cc2)c1Cl [II-154]
protectant activity against cucumber downy mildew in vivo (cucumber downy mildew; 400 ppm): 100% | control effect against corn rust (%) (corn rust; 1.6 mg/L, protectant activity): 50% | control effect against corn rust (%) (corn rust; 6.25 mg/L, protectant activity): 100% | control effect against corn rust (%) (corn rust; 25 mg/L, protectant activity): 100% | control effect against corn rust (%) (corn rust; 100 mg/L, protectant activity): 100% | control effect against corn rust (%) (corn rust; 400 mg/L, protectant activity): 100% | protectant activity against corn rust in vivo (corn rust; 6.25 ppm): 100% | protectant activity against corn rust in vivo (corn rust; 25 ppm): 100% | protectant activity against corn rust in vivo (corn rust; 100 ppm): 100% | protectant activity against corn rust in vivo (corn rust; 400 ppm): 100% | control (test results against green peach aphid) ([1]; 100 ppm): 100% | control (test results against green peach aphid) ([1]; 600 ppm): 100% | control (test results against diamond back moth) (Diamond back moth): 100% | protectant activity against wheat powdery mildew in vivo (wheat powdery mildew; 100 ppm): 100% | protectant activity against wheat powdery mildew in vivo (wheat powdery mildew; 400 ppm): 100% | control against carmine spider mite (carmine spider mite; 100 ppm): 100% | control against carmine spider mite (carmine spider mite; 600 ppm): 100%
